Experimental findings from patent US6979747B2, “Antioxidants, preparation processes and their uses” (Centre National de la Recherche Scientifique (CNRS), priority 1999, dated 2005) are described below.

The test system of one data set is HIV-1/Ba-L. Briefly: Antiviral activity in human spleen macrophages infected with HIV-1/Ba-L. Format: cell-based. The following applies: Human immunodeficiency virus 1, BAL, Macrophage, read-out: concentration that decreases HIV replication by 50%. The source says:
The spleen is dissected and sieved and then the mononuclear cells are isolated using a density gradient, on a Ficoll cushion. The monocytes/macrophages are obtained by adherence to the plastic. The monocytes were allowed to differentiate into macrophages for 7 days, at which time they were infected.
Retroviral replication within this cell population, and thus the effectiveness of a molecule such as I-152, is conditioned partly by the level of cell differentiation. It was therefore important to make sure of the antiviral effectiveness of I-152 in monocytes/macrophages with a degree of maturation which can be different from that of MDMs. We have thus evaluated the antiviral activity of I-152 and its ability to regenerate the intracellular level of GSH in spleen macrophages. In this cell populations, the HIV-1/Ba-L strain also replicates at high […]. […] This is because the concentration of 38 μM decreases HIV replication by 50% in this spleen cell population (table III). […] It should be noted that, in the spleen macrophages, as in the macrophages derived from blood monocytes, infection by HIV leads to a deficiency of GSH (MDM; FIG. 16).

As to `CC(=O)N[C@@H](CS)C(=O)NCCSC(C)=O` [I-152, N-(N-acetyl-L-cysteinyl)-S-acetylcysteamine], the “cytotoxicity (in words)” value with PBLs is listed as “not cytotoxic”. Moreover, the EC50 in the data set on HIV-1/Ba-L stood at 38 µM.
